Test results published in PMC3822934 (Journal of Cellular and Molecular Medicine, 2012).

Assay: Comparison of blood glucose lowering with glibenclamide
Format: in vivo
Settings: data not shown

SMILES: COc1ccc(Cl)cc1C(=O)NCCc1ccc(S(=O)(=O)NC(=O)NC2CCCCC2)cc1 [glibenclamide]
- blood glucose lowering activity compared with EH-36: comparable blood glucose lowering activities
- onset of the effect compared with EH-36: faster
